Experimental data from PMC9682078, “Structural changes and molecular mechanism study on the inhibitory activity of epigallocatechin against α-glucosidase and α-amylase” (Frontiers in Nutrition, 2022).

Target: T1, α-amylase (Sus scrofa, UniProt P00690)
T1 construct: gene AMY2
T1 sequence (P00690 16-511): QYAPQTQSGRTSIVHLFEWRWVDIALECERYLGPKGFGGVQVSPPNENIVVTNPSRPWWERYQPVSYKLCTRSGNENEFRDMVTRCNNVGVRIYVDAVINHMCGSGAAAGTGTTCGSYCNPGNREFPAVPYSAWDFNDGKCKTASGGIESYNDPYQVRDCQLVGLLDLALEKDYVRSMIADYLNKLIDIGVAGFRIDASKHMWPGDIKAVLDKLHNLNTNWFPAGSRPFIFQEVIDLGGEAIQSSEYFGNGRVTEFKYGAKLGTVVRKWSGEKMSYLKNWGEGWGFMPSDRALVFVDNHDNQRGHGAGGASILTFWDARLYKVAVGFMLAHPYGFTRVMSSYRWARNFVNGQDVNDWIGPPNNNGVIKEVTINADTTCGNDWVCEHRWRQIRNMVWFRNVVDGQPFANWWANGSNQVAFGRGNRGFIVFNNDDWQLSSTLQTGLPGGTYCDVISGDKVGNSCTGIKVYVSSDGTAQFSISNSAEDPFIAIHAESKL
Assay: colorimetric DNS starch hydrolysis assay; Lineweaver-Burk kinetics; intrinsic fluorescence quenching
Format: biochemical

For Oc1cc(O)c2c(c1)O[C@H](c1cc(O)c(O)c(O)c1)[C@H](O)C2 [EGC, epigallocatechin], the IC50 was 4.44 mM.
